The values that follow come from patent US20200281845A1, “COMPOSITIONS COMPRISING LESPEDEZA PLANT EXTRACT” (Clariant International Ltd., priority 2017, published 2020).

The subject of this test is Per2pro-LUC. The experiment in a line: Improvement of circadian clock activity reduced by TCDD, Per2pro-LUC in HaCaT cells. The note with it: TCDD 1.5 nM for 4 hours, compared to cells treated with solvent toluene alone. Format: cell-based, human. On the procedure: The improvement effects of the extracts of Lespedeza bicolor Turcz, Lespedeza cuneata G. Don, Lespedeza maximowiczii C. K. Schneid and Lespedeza capitata were measured in skin circadian clock activity reduced by TCDD (2,3,7,8-Tetrachlorodibenzo-p-dioxin) which is an environmental hormone dioxin. HaCaT cells containing Per2pro-LUC were inoculated in a 96-well plate containing Hygromycine B at 200 ug/ml and 10% FBS in DMEM medium (1.4×10^4 cells/well), and cultured in a 5% CO2 incubator at 37° C. for 48 hours. After 48 hours, 50 ug/ml of the extracts of Lespedeza bicolor Turcz, Lespedeza cuneata G. Don and Lespedeza maximowiczii C. K. Schneid and Lespedeza capitata were each treated for 24 hours while being treated with TCDD (2,3,7,8-tetrachlorodibenzo-p-dioxin) 1.5 nM for 4 hours simultaneously, and then transferred to the medium for measuring Luciferase (DMEM containing HEPES 10 mM, Luciferin 1 mM, Hygromycine B 200 ug/ml, 10% FBS). […] K. Schneid and Lespedeza capitata in alleviating reduced biorhythm by environmental hormones. As shown here, cells treated with TCDD had 30% reduced absolute value for Per2pro-LUC rhythm, compared to cells that were treated with the solvent toluene alone. In contrast to this, cells treated with the extracts of Lespedeza bicolor Turcz, Lespedeza cuneata G. Don, Lespedeza maximowiczii C.

Consider `Clc1cc2c(cc1Cl)Oc1cc(Cl)c(Cl)cc1O2` [TCDD, 2,3,7,8-Tetrachlorodibenzo-p-dioxin], for which the “reduced absolute value for Per2pro-LUC rhythm” value is reported as 30%.
